Target: T1, human P2Y12 receptor (Homo sapiens, UniProt Q9H244)
T1 construct: expressed in transfected cells; host or cells: CHO cells
Experiment: P2Y12 receptor binding assay
Details: CHO cells with recombinant expression of the human P2Y12 receptor; tritium-labeled 2-methyl-S-ADP; RT, 2 hours
Method: P2Y12 Receptor Binding Assay
Chinese Hamster Ovary (CHO) cells with recombinant expression of the human P2Y12 receptor were cultured in 24 well cell-culture plates. Cells were washed three times with binding buffer (50 mM Tris pH 7.4, 100 mM NaCl, 1 mM EDTA, 0.5% BSA). The cells were then incubated with 0.5 ml per well binding buffer containing tritium-labeled 2-methyl-thio-adenosine 5′-diphosphate (2-methyl-S-ADP) (between 100′000 and 300′000 dpm per well) and various concentrations of test compounds. After incubation at RT for 2 hours, cells were washed three times with binding buffer. Then, cells were solubilized by addition of 0.5 ml solubilization buffer (SDS, NaOH, EDTA). The content of each well was then transferred into beta-counter vials and 2.0 ml of Ultima Gold Scintillation liquid was added.

T1 sequence (Q9H244 whole entry): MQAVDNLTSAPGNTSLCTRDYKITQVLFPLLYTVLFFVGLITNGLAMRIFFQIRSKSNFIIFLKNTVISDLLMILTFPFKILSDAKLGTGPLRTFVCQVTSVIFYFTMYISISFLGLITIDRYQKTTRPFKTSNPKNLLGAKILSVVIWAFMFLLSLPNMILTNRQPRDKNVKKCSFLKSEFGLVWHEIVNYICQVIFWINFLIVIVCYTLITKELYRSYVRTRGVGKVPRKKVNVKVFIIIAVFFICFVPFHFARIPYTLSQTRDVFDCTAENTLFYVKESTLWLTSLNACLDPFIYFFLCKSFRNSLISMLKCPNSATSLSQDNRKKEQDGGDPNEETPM

**Q.** CCCCOC(=O)N1CCN(C(=O)CNC(=O)c2nc(-c3ccccc3)sc2/C=C/C(=O)O)CC1 [Example 31, 4-(2-{[5-((E)-2-Carboxy-vinyl)-2-phenyl-thiazole-4-carbonyl]-amino}-acetyl)-piperazine-1-carboxylic acid butyl ester] was tested. Which IC50 did it give?
**A.** The IC50 was 0.019 µM.

**Q.** How did the IC50 turn out when CCCCOC(=O)N1CCN(C(=O)[C@H](CCC(=O)O)NC(=O)c2csc(-c3ccccc3Oc3ccccc3)n2)CC1 [Example 3, 4-((S)-4-Carboxy-2-{[2-(2-phenoxy-phenyl)-thiazole-4-carbonyl]-amino}-butyryl)-piperazine-1-carboxylic acid butyl ester] was run?
**A.** The IC50 was 1.47 µM.

**Q.** Which IC50 does the source give for CCCCOC(=O)N1CCN(C(=O)[C@H](CP(=O)(OCOC(C)=O)OCOC(C)=O)NC(=O)c2csc(-c3ccccc3)n2)CC1 [Example 57, 4-{(R)-3-[Bis-(acetoxymethoxy)-phosphoryl]-2-[(2-phenyl-thiazole-4-carbonyl)-amino]-propionyl}-piperazine-1-carboxylic acid butyl ester] here?
**A.** Its IC50 is 0.005 µM.

**Q.** How did the IC50 turn out when CCCCOC(=O)N1CCN(C(=O)[C@H](CO)NC(=O)c2nc(-c3ccccc3)sc2CCC(=O)O)CC1 [Example 40, 4-((S)-2-{[5-(2-Carboxy-ethyl)-2-phenyl-thiazole-4-carbonyl]-amino}-3-hydroxy-propionyl)-piperazine-1-carboxylic acid butyl ester] was run?
**A.** The IC50 was 0.043 µM.

**Q.** How did the IC50 turn out when CCCCOC(=O)N1CCN(C(=O)[C@H](CP(=O)(O)O)NC(=O)c2nc(-c3ccccc3)sc2-c2ccccc2)CC1 [Example 43, 4-{(R)-2-[(2,5-Diphenyl-thiazole-4-carbonyl)-amino]-3-phosphono-propionyl}-piperazine-1-carboxylic acid butyl ester] was run?
**A.** Its IC50 is 0.013 µM.

**Q.** Which IC50 does the source give for CCCCOC(=O)N1CCN(C(=O)CNC(=O)c2nc(-c3ccccc3)sc2CCC(=O)OCC)CC1 [Example 32, 4-(2-{[5-(2-Ethoxycarbonyl-ethyl)-2-phenyl-thiazole-4-carbonyl]-amino}-acetyl)-piperazine-1-carboxylic acid butyl ester] here?
**A.** The IC50 was 0.157 µM.

**Q.** Which IC50 does the source give for CCCCOC(=O)N1CCN(C(=O)[C@H](CP(=O)(OCC)OCC)NC(=O)c2nc(-c3ccccc3)sc2-c2ccccc2)CC1 [Example 42, 4-{(R)-3-(Diethoxy-phosphoryl)-2-[(2,5-diphenyl-thiazole-4-carbonyl)-amino]-propionyl}-piperazine-1-carboxylic acid butyl ester] here?
**A.** The IC50 was 2.19 µM.

**Q.** How did the IC50 turn out when CCCCOC(=O)N1CCN(C(=O)[C@H](CP(=O)(O)O)NC(=O)c2nc(-c3ccccc3)c(Br)s2)CC1 [Example 48, 4-{(R)-2-[(5-Bromo-4-phenyl-thiazole-2-carbonyl)-amino]-3-phosphono-propionyl}-piperazine-1-carboxylic acid butyl ester] was run?
**A.** Its IC50 is 0.006 µM.

**Q.** Which IC50 does the source give for CCCCOC(=O)N1CCN(C(=O)[C@H](CCC(=O)O)NC(=O)c2nc(-c3ccccc3)sc2[C@H]2C[C@@H]2COC)CC1 [Example 18, 4-((S)-4-Carboxy-2-{[5-((1S,2S)-2-methoxymethyl-cyclopropyl)-2-phenyl-thiazole-4-carbonyl]-amino}-butyryl)-piperazine-1-carboxylic acid butyl ester] here?
**A.** Its IC50 is 0.011 µM.

**Q.** Which IC50 does the source give for CCCCOC(=O)N1CCN(C(=O)[C@H](CCC(=O)O)NC(=O)c2csc(-c3ccccc3)n2)CC1 [Example 7, 4-{(S)-4-Carboxy-2-[(2-phenyl-thiazole-4-carbonyl)-amino]-butyryl}-piperazine-1-carboxylic acid butyl ester] here?
**A.** Its IC50 is 0.016 µM.

**Q.** How did the IC50 turn out when CCCCOC(=O)N1CCN(C(=O)[C@H](Cc2ccc(P(=O)(OCC)OCC)cc2)NC(=O)c2csc(-c3ccccc3)n2)CC1 [Example 10, 4-{(S)-3-[4-(Diethoxy-phosphoryl)-phenyl]-2-[(2-phenyl-thiazole-4-carbonyl)-amino]-propionyl}-piperazine-1-carboxylic acid butyl ester] was run?
**A.** The IC50 was 0.635 µM.

**Q.** Which IC50 does the source give for CCCCOC(=O)N1CCN(C(=O)CNC(=O)c2nc(-c3ccccc3)c(/C=C/C(=O)OCC)s2)CC1 [Example 53, 4-(2-{[5-((E)-2-Ethoxycarbonyl-vinyl)-4-phenyl-thiazole-2-carbonyl]-amino}-acetyl)-piperazine-1-carboxylic acid butyl ester] here?
**A.** Its IC50 is 0.513 µM.

**Q.** For CCCCOC(=O)N1CCN(C(=O)[C@H](CP(=O)(O)O)NC(=O)c2csc(-c3ccccc3)n2)CC1 [Example 9, 4-{(R)-2-[(2-Phenyl-thiazole-4-carbonyl)-amino]-3-phosphono-propionyl}-piperazine-1-carboxylic acid butyl ester], which IC50 is on record?
**A.** The IC50 was 0.002 µM.

**Q.** CCCCOC(=O)N1CCN(C(=O)[C@H](CP(=O)(OCOC(=O)OCC)OCOC(=O)OCC)NC(=O)c2csc(-c3ccccc3)n2)CC1 [Example 59, 4-{(R)-3-[Bis-(ethoxycarbonyloxymethoxy)-phosphoryl]-2-[(2-phenyl-thiazole-4-carbonyl)-amino]-propionyl}-piperazine-1-carboxylic acid butyl ester] was tested. Which IC50 did it give?
**A.** Its IC50 is 0.015 µM.

**Q.** How did the IC50 turn out when CCCCOC(=O)N1CCN(C(=O)[C@H](CCC(=O)O)NC(=O)c2nc(-c3ccccc3)sc2CCCOC)CC1 [Example 22, 4-((S)-4-Carboxy-2-{[5-(3-methoxy-propyl)-2-phenyl-thiazole-4-carbonyl]-amino}-butyryl)-piperazine-1-carboxylic acid butyl ester] was run?
**A.** The IC50 was 0.028 µM.

**Q.** For CCCCOC(=O)N1CCN(C(=O)[C@H](CCC(=O)O)NC(=O)c2nc(-c3ccccc3)sc2Cl)CC1 [Example 16, 4-{(S)-4-Carboxy-2-[(5-chloro-2-phenyl-thiazole-4-carbonyl)-amino]-butyryl}-piperazine-1-carboxylic acid butyl ester], which IC50 is on record?
**A.** The IC50 was 0.007 µM.

**Q.** With CCCCOC(=O)N1CCN(C(=O)[C@H](CP(=O)(O)O)NC(=O)c2nc(-c3ccccc3)c(-c3ccccc3)s2)CC1 [Example 49, 4-{(R)-2-[(4,5-Diphenyl-thiazole-2-carbonyl)-amino]-3-phosphono-propionyl}-piperazine-1-carboxylic acid butyl ester] as the molecule, how does the IC50 read?
**A.** Its IC50 is 0.152 µM.

**Q.** For CCCCOC(=O)N1CCN(C(=O)[C@H](CCC(=O)O)NC(=O)c2nc(-c3ccccc3)sc2N2CC[C@H](OC)C2)CC1 [Example 25, 4-((S)-4-Carboxy-2-{[5-((S)-3-methoxy-pyrrolidin-1-yl)-2-phenyl-thiazole-4-carbonyl]-amino}-butyryl)-piperazine-1-carboxylic acid butyl ester], which IC50 is on record?
**A.** The IC50 was 0.003 µM.

**Q.** Which IC50 does the source give for CCCCOC(=O)N1CCN(C(=O)[C@H](CCC(=O)O)NC(=O)c2csc(-c3ccccc3OC)n2)CC1 [Example 5, 4-((S)-4-Carboxy-2-{[2-(2-methoxy-phenyl)-thiazole-4-carbonyl]-amino}-butyryl)-piperazine-1-carboxylic acid butyl ester] here?
**A.** Its IC50 is 0.464 µM.

**Q.** For CCCCOC(=O)N1CCN(C(=O)[C@H](CCC(=O)O)NC(=O)c2csc(-c3cccc(OC)c3)n2)CC1 [Example 4, 4-((S)-4-Carboxy-2-{[2-(3-methoxy-phenyl)-thiazole-4-carbonyl]-amino}-butyryl)-piperazine-1-carboxylic acid butyl ester], which IC50 is on record?
**A.** The IC50 was 0.249 µM.

**Q.** Which IC50 does the source give for CCCCOC(=O)N1CCN(C(=O)[C@H](CP(=O)(OCC)OCC)NC(=O)c2csc(-c3ccccc3)n2)CC1 [Example 8, 4-{(R)-3-(Diethoxy-phosphoryl)-2-[(2-phenyl-thiazole-4-carbonyl)-amino]-propionyl}-piperazine-1-carboxylic acid butyl ester] here?
**A.** The IC50 was 0.502 µM.

**Q.** With CCCCOC(=O)N1CCN(C(=O)[C@H](Cc2ccc(P(=O)(O)O)cc2)NC(=O)c2csc(-c3ccccc3)n2)CC1 [Example 11, 4-[(S)-2-[(2-Phenyl-thiazole-4-carbonyl)-amino]-3-(4-phosphono-phenyl)-propionyl]-piperazine-1-carboxylic acid butyl ester] as the molecule, how does the IC50 read?
**A.** The IC50 was 0.001 µM.

**Q.** For CCCCOC(=O)N1CCN(C(=O)[C@H](CO)NC(=O)c2nc(-c3ccccc3)sc2Br)CC1 [Example 37, 4-{(S)-2-[(5-Bromo-2-phenyl-thiazole-4-carbonyl)-amino]-3-hydroxy-propionyl}-piperazine-1-carboxylic acid butyl ester], which IC50 is on record?
**A.** The IC50 was 0.696 µM.

**Q.** Which IC50 does the source give for CCCCOC(=O)N1CCN(C(=O)CNC(=O)c2nc(-c3ccccc3)sc2NCCCOC)CC1 [Example 28, 4-(2-{[5-(3-Methoxy-propylamino)-2-phenyl-thiazole-4-carbonyl]-amino}-acetyl)-piperazine-1-carboxylic acid butyl ester] here?
**A.** Its IC50 is 0.047 µM.

**Q.** CCCCOC(=O)N1CCN(C(=O)CNC(=O)c2nc(-c3ccccc3)sc2NCCC(=O)OCC)CC1 [Example 62, 4-(2-{[5-(2-Ethoxycarbonyl-ethylamino)-2-phenyl-thiazole-4-carbonyl]-amino}-acetyl)-piperazine-1-carboxylic acid butyl ester] was tested. Which IC50 did it give?
**A.** Its IC50 is 0.134 µM.

**Q.** CCCCOC(=O)N1CCN(C(=O)[C@H](CCC(=O)O)NC(=O)c2nc(-c3ccccc3)sc2N2CCOCC2)CC1 [Example 23, 4-{(S)-4-Carboxy-2-[(5-morpholin-4-yl-2-phenyl-thiazole-4-carbonyl)-amino]-butyryl}-piperazine-1-carboxylic acid butyl ester] was tested. Which IC50 did it give?
**A.** The IC50 was 0.039 µM.

**Q.** Which IC50 does the source give for CCOC(=O)N1CCN(C(=O)[C@H](Cc2ccc(P(=O)(OCC)OCC)cc2)NC(=O)c2csc(-c3ccccc3)n2)CC1 [Example 12, 4-{(S)-3-[4-(Diethoxy-phosphoryl)-phenyl]-2-[(2-phenyl-thiazole-4-carbonyl)-amino]-propionyl}-piperazine-1-carboxylic acid ethyl ester] here?
**A.** Its IC50 is 4.94 µM.

**Q.** CCOC(=O)N1CCN(C(=O)[C@H](Cc2ccc(P(=O)(O)O)cc2)NC(=O)c2csc(-c3ccccc3)n2)CC1 [Example 13, 4-[(S)-2-[(2-Phenyl-thiazole-4-carbonyl)-amino]-3-(4-phosphono-phenyl)-propionyl]-piperazine-1-carboxylic acid ethyl ester] was tested. Which IC50 did it give?
**A.** The IC50 was 0.002 µM.

— patent US8664203B2, “Thiazole derivatives and their use as P2Y12 receptor antagonists” (Actelion Pharmaceuticals Ltd., priority 2009, dated 2014)
